Measured values as given in patent publication US10106589B2, “Compositions and methods for immunomodulation” (FUNDACIO INSTITUT D'INVESTIGACIO BIOMEDICA DE BELLVITGE …, priority 2011, dated 2018).

Tests used:
human Mo-DCs [1] = experiment: Flow cytometry of cell surface markers on treated, LPS-matured Mo-DCs; format: cell-based; set-up: key to HLA-DR / CD40 / CD83 / CD86 / CD14 / CD1a / CCR7: (−) negligible; (+) low; (++) moderate; (+++) high; details: surface marker; treated and LPS-induced DCs
Experimental: Peripheral blood mononuclear cells (PBMCs) were obtained from buffy coat preparations belonging to healthy donors from the Blood and Tissue Bank (Barcelona, Spain) after Ficoll-Paque™ density centrifugation (GE Healthcare Bio-Sciences AB; Uppsala, Sweden). Monocytes were purified by two different methods: 1) Cells were plated at 1×10^6 cells/ml in 60 mm culture plates (Corning, Spain) in RPMI without serum and allowed to adhere for 2 h at 37° C. in 5% CO2. The non-adherent cells were removed by washing in PBS. […] 2) Cells were purified using colloidal super-paramagnetic microbeads conjugated with monoclonal mouse anti-human CD14 antibodies (MACS, Miltenyi Biotec, Auburn, Calif., or EasySep® Positive Selection Cocktail, StemCell Technologies, Grenoble, France). The purity of CD14^+ cells was tested by CD14 staining and flow cytometry analysis (>90% CD14^+ cells). Monocyte-derived DCs (Mo-DCs) were generated supplementing the monocyte cultures with complete RPMI 1640 medium plus GM-CSF (800 UI/ml) and IL-4 (500 UI/ml) (both from Gentaur, Kampenhout, Belgium) at day 0 and day 3 of culture. For DC maturation, at day 5 iDCs were further stimulated for 48 h with 5 μg/ml LPS (Escherichia coli 055.B5, Sigma L2880, Copenhagen, Denmark).
Cell surface phenotypes were analyzed using the following monoclonal antibodies: FITC-conjugated anti-HLA-DR (Immu-357), FITC-conjugated anti-CD83 (HB15a), FITC-conjugated anti-CD14 (RMO52), PE-conjugated anti-CD40 (MAB89), PE-conjugated anti-CD1a (BL6), PE-conjugated anti-CD80 (MAB104), PE-conjugated anti-CD86 (HA5.2B7) (all from Beckman-Coulter), Alexa Fluor 488-conjugated anti-CCR7 (TG8/CCR7, Biolegend, San Diego, Calif.), and the respective isotype controls from the same commercial sources. After washing with PBS, cells were subsequently stained with 3 μl MoAb/10^5 cells in 100 μl of FACS buffer (PBS containing 1% BSA and 0.1% sodium azide) for 20 min at room temp. Stained cells were analysed using a FACScalibur (Becton Dickinson). Mo-DCs were gated according to forward scatter (FSC) and side scatter (SSC) parameters. The results were analysed using CellQuestPro software (Becton Dickinson).
Both the different C4BP isoforms (α7β1, α7β0 and α6β0), and Factor H were added at 2, 5 and 10 μg/ml throughout Mo-DC differentiation, maturation, or both. Namely, for the differentiation assays the proteins were added at day 0 and replenished at day 3. For the maturation assays the proteins were added at day 5, either alone or combined with LPS. Finally, for the differentiation plus maturation assays the proteins were added at days 0, 3 and 5 (at the last time point, combined with LPS).

human Mo-DCs [2] = experiment: Apoptosis determination (Annexin V / 7-ADD); format: cell-based; set-up: key: (−) negligible; (+) low; (++) moderate; (+++) high; details: viability; treated and LPS-induced DCs
From the text: Double staining using with the fluorescent dyes Annexin V (Annexin V-PE Apoptosis Detection Kit I, BD Pharmigen, San Diego, Calif.) and 7-amino-actinomycin D (7-ADD) (BD Pharmigen), and flow cytometry analysis, was employed to assess the viability/apoptosis status of C4BP α7β1-, C4BP α7β0-, recC4BP α6β0-, or Factor H-treated and untreated Mo-DCs.

allogeneic CD3+ T cells = experiment: Mixed leukocyte reaction ([3H]-thymidine incorporation); format: cell-based, human; set-up: key to Alloproliferation (T CD3^+): (−) negligible; (+) low; (++) moderate; (+++) high; details: functional assay; treated and LPS-induced DCs
Experimental: CD3^+ T cells (10^5/well) and C4BP-treated (α7β1 and α7β0), or Factor H-treated, and LPS-activated Mo-DCs were seeded in a 96-well round-bottom plate at various DC:T cell ratios (1:40, 1:80 and 1:160) and cultured in X-VIVO 15 medium (Biowittaker, Walkersville, Md.) supplemented with 100 μg/ml of streptomycin, 100 IU/ml of penicillin and 2 mM L-glutamine (all from Invitrogen) plus 2% Human AB Serum. Allospecific proliferation was measured after 5 days of incubation. At day 4, the […] [^3H]-thymidine (1 μCi/well, Perkin Elmer, Boston, Mass.) was added, followed by incubation for another 16 h. Labeled cells were then harvested onto glass-fiber filters with a Filtermate Harvester (Packard, Meriden, Conn.), and the T cell proliferation rate was determined by the amount of [^3H]-thymidine incorporation, which was measured in a TopCount NXT counter (Packard). Results are reported as the mean cpm±SD of thymidine incorporation in quadruplicate culture wells.

human Mo-DCs [3] = tested on: human Mo-DCs; set-up: key: (−) negligible; (+) low; (++) moderate; (+++) high; details: Vit D3-treated and LPS-induced DCs; data from Heitger (2011); cited from earlier work
LPS-matured human Mo-DCs = tested on: LPS-matured human Mo-DCs; set-up: key: (−) negligible; (+) low; (++) moderate; (+++) high; details: cytokine; Vit D3-treated and LPS-induced DCs; data from Naranjo-Gomez et al. (2011); cited from earlier work

With C=C1/C(=C\C=C2/CCC[C@]3(C)[C@@H]([C@H](C)CCCC(C)(C)O)CC[C@@H]23)C[C@@H](O)C[C@@H]1O [Vit D3, calcitriol, reference compound] the CCR7 (human Mo-DCs [1]) was “++”, the CD1a (human Mo-DCs [1]) was “−” and the CD14 (human Mo-DCs [1]) was “+”. The CD40 (human Mo-DCs [1]) was “+”, the CD83 (human Mo-DCs [1]) was “+” and the CD86 (human Mo-DCs [1]) was “−”. For the same molecule, the HLA-DR (human Mo-DCs [1]) was “+”, the Apoptosis after treatment (human Mo-DCs [2]) was “+” and the “Alloproliferation (T CD3^+)” value (allogeneic CD3+ T cells) was “−”. The IDO (human Mo-DCs [3]) was “+++ (**)”, the IL-10 (LPS-matured human Mo-DCs) was “++ (*)” and the IL-12 (LPS-matured human Mo-DCs) was “− (*)”.
